The source of these data is patent EP0155871A1, “Compounds possessing inhibiting properties in the lignin formation in plants and process for the reduction of their lignin content” (Etablissement Public dit: CENTRE NATIONAL DE LA RECHERCHE …, priority 1984, dated 1985).

Structures are written as SMILES. Where two headings read alike, the source gives them in different places.

Format in all cases: biochemical
In assay [1] the target is T1, CAD de peuplier (Populus deltoides, UniProt P31657).
T1 construct: la CAD de peuplier isolée selon la méthode deSARNI et al; from tissue
T1 sequence (P31657 1-357): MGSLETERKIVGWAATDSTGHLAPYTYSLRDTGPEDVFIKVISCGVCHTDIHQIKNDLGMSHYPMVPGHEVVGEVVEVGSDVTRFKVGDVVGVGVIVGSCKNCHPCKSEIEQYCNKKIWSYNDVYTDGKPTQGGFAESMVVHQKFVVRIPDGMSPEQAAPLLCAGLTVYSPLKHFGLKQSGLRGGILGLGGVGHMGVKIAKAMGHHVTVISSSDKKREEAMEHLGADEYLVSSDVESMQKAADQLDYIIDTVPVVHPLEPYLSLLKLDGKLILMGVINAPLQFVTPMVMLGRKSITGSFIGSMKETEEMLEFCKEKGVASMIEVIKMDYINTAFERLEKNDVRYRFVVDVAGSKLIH
The experiment in a line: in vitro inhibition of isolated poplar CAD. The note with it: 0,250mM; sens physiologique, réduction de l'aldéhyde coniférylique, 340 nm, pH 6,5; read-out: inhibition à 0,250mM.

Assay [2] concerns the target T1, CAD de peuplier. The experiment in a line: in vitro inhibition of isolated poplar CAD. The source says: On rapporte dans le tableau suivant les résultats obtenus concernant l'effet mesuré in vitro d'inhibiteurs selon l'invention à différentes concentrations vis-à-vis de la CAD de peuplier isolée selon la méthode deSARNI et al, dans, EUROP JOURNAL OF BIOCHEMISTRY,139, P.259-265, 1984.
Les mesures des trois derniers résultats ont été réalisées dans le sens physiologique c'est-à-dire en suivant la réduction de l'aldéhyde coniférylique(oxydation du […] mesurée à 340 nm).
Cette inhibition mesurée in vitro dans le sens physiologique (pH 6,5) est 10 à 15 fois plus importante que dans le sens inverse, c'es-t-à-dire alcool→ aldéhyde (pH 8,8).

For assay [3], the target named is T2, CAD (Populus deltoides, UniProt P31657).
T2 construct: from tissue
T2 sequence (P31657 1-357): T1 sequence (P31657 1-357)
In words: reversibility of CAD inhibition by dialysis of the enzyme-inhibitor mixture. Particulars: 2 mM; dialysis against tampon tris/HCl 0,1 M, pH 7,5, 14 heures, 4°C. The source says: L'étude des modalités d'action des inhibiteurs de l'invention montre la réversibilité de leur action.

In assay [4] the test system is éthanol déshydrogénase (EDH). In words: action on plant zinc enzyme EDH. The source says:
(§1) L'étude de leur action sur différentes enzymes a également été réalisée.
(§2) On a étudié ainsi l'action d'inhibiteurs selon l'invention sur des enzymes du métabolisme phénolique telles que la phénylalanine ammonialyase (PAL), la catéchol O-méthyl transférase (OMT), l'hydroxycinnamate : CoA ligase (HCl) et la cinnamoyl : CoA réductase (CCR), et des enzymes végétales à zinc, telles que l'éthanol déshydrogénase (EDH), la superoxyde dismutase (SOD) et l'anhydrase carbonique (CA).

For assay [5], the system named is superoxyde dismutase (SOD). The experiment in a line: action on plant zinc enzyme SOD.
Excerpt: as §1, §2

The test system of assay [6] is anhydrase carbonique (CA). In words: action on plant zinc enzyme carbonic anhydrase.
Excerpt: as §1, §2

For assay [7], the system named is phénylalanine ammonialyase (PAL). The experiment in a line: action on phenolic metabolism enzyme PAL.
Excerpt: as §1, §2

For assay [8], the system named is cinnamoyl : CoA réductase (CCR). The experiment in a line: action on phenolic metabolism enzyme CCR.
Excerpt: as §1, §2

The mark [9] stands for this setting: 2mM, not among the results measured in the physiological direction, read-out: Inhibition % à 2mM.

The inhibition is the drop in the measured response relative to a control, in per cent.

On to `COc1cc(C=CC(=O)N2CCSC2=S)ccc1O` [FMT], for which, in assay [1], the inhibition at 250 µM came out at 100%.

`COc1cc(C=CC(=O)OC(C)(C)C)cc(OC)c1O` [STB, Sinapate de tertiobutyle]: the inhibition at 2000 µM in assay [2] (setting [9]) was 55%.

`COc1cc(C=CC(=O)OC(C)(C)C)ccc1O` [FTB, férulate de tertiobutyle]: the inhibition at 2000 µM was 75% in assay [2] (setting [9]) and approximately 75% in assay [2] (text restatement of the table value (2mM), read-out: taux d'inhibition). In addition, the “activité de CAD après dialyse” value in assay [3] is on record as “restitution totale de l'activité CAD”. Besides, in assay [4], the “action sur l'EDH” value is given as “n'agit pas”. For the same compound, the “action sur la SOD” value in assay [5] is “n'agit pas”. For the same compound, the “action sur l'AC” value in assay [6] was “n'agit pas”. Also, the “action vis à vis de la PAL” value in assay [7] was “actif”. In addition, the “action vis à vis de la CCR” value in assay [8] is on record as “actif”. In assay [1], the inhibition at 250 µM amounted to 100%.

Consider `CC(C)(C)OC(=O)C=Cc1ccc(O)cc1` [PCB, p-Coumarate de tertiobutyle], for which the inhibition at 2000 µM in assay [2] (setting [9]) was 40%.
